Data reported in article PMC3407927, “Cyclisation Increases the Stability of the Sea Anemone Peptide APETx2 but Decreases Its Activity at Acid-Sensing Ion Channel 3” (Marine Drugs, 2012).
Where a SMILES comes first, the peptide text is derived from it. Bridges are numbered along the chain shown (N, C = ends). Where no end group is shown, it is not given here.

How the values were obtained:
trypsin = assay: Trypsin stability assay; type: in vitro ADME; settings: 5 mM EDTA, pH 8.0, 20 μM peptide, 37 °C, RP-HPLC; for half-life at 20 μM / Trypsin stability assay: half-life: 1 μg trypsin in 500 μL 20 mM Tris, samples 0-48 h, each time point in triplicate
Method: The following protocol was modified from a previous published method: Wild-type APETx2 and cyclic analogues were diluted into 500 μL trypsin buffer (20 mM Tris, 5 mM EDTA, pH 8.0) to a final concentration of 20 μM. Reactions were started by adding 1 μg trypsin to each sample. A 35-μL sample was used for each time point and quenched by mixing with 35 μL 0.2% TFA. Protease digestion was monitored using analytical RP-HPLC. Reactions were incubated at 37 °C and samples were taken at 0, 0.5, 1, 2, 4, 12, 24 and 48 h. All time points were investigated in triplicate.

pepsin [1] = system: T1, pepsin; assay: Simulated gastric fluid (SGF) stability assay; type: in vitro ADME; settings: simulated gastric fluid (SGF) with pepsin; SGF: 6.2 mg/mL pepsin, 30 mM NaCl, pH 1.9; 20 μM peptide; 37 °C; samples 0-480 min; RP-HPLC; each time point in triplicate
T1 construct: purchased Sigma Aldrich
Method: (§1) The following protocol was modified from a published method: Wild-type APETx2 and cyclic analogues were separately diluted into 350 μL SGF (6.2 mg/mL pepsin, 30 mM NaCl, pH 1.9) to a final peptide concentration of 20 μM. Reactions were started with the addition of the peptides and the mixtures were incubated at 37 °C. 35-μL samples were taken at 0, 15, 30, 45, 60, 120, 240 and 480 min and mixed with 5 μL pepstatin A to quench the reaction (3.3 mg/mL dissolved in ethanol). Progress was monitored using RP-HPLC and each time point was investigated in triplicate.

[2] = Solution stability under lab storage conditions; type: physicochemical; settings: dissolved in water and kept at 4 °C; unpublished observations
rat ASIC3 = target: T2, rat ASIC3 (Rattus norvegicus, UniProt O35240); assay: Two-electrode voltage-clamp electrophysiology on Xenopus laevis oocytes expressing homomeric rat ASIC3; type: cell-based; settings: n = 6
T2 construct: expressed in transfected cells; host or cells: Xenopus laevis oocytes (cRNA injection)
T2 sequence (O35240 1-533): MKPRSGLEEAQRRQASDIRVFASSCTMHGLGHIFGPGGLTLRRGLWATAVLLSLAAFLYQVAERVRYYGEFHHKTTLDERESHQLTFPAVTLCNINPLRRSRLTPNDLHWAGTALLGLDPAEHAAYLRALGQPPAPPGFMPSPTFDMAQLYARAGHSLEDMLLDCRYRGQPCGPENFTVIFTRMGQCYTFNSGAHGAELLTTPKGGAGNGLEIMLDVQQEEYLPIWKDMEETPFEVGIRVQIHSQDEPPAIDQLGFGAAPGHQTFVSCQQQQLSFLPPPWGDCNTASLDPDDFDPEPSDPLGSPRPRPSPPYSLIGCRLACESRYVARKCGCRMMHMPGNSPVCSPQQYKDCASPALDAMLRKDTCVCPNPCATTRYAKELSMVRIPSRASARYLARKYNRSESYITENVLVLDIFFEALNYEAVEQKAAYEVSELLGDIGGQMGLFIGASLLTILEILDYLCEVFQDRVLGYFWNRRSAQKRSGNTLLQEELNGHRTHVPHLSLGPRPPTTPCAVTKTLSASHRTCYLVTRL
Method: The biological activity of wild-type APETx2 was compared with that of truncations and cyclic analogues using voltage-clamp electrophysiology experiments on Xenopus laevis oocytes expressing homomeric rat ASIC3. […] At 1000 nM, a concentration of APETx2 that normally causes >90% inhibition of ASIC3 [18], all three cyclic analogues had little activity (~10% inhibition, n = 6) (Figure 5). Although a full concentration-effect curve was not obtained, there is an approximate 125-fold decrease in activity for all three cyclic analogues based on the concentration that causes 10% inhibition (~8 nM for wild-type APETx2 vs. 1000 nM for cyclic APETx2).
Oocytes were obtained from Xenopus laevis frogs and treated with collagenase (Sigma type I) for defolliculation. cRNA of rat ASIC3 was synthesised using an mMessage mMachine cRNA transcription kit and healthy stage V–VI oocytes injected with 4 ng rat ASIC3 cRNA (40 nL of 100 ng/μL). Oocytes were kept at 17 °C in ND96 solution (96 mM NaCl, 2 mM KCl, 1 mM CaCl2, 2 mM MgCl2, 5 mM HEPES, 5 mM pyruvic acid, 50 µg/mL gentamicin, 2.5% fetal horse serum, pH 7.4). Membrane currents were recorded 2–6 days post cRNA injection under voltage-clamp (Axoclamp 900 A amplifier, Molecular Devices, Sunnyvale, CA, USA) using two standard glass microelectrodes with resistances of 0.5–1 MΩ when filled with 3 M KCl solution. […]

pepsin [3] = target: T3, pepsin (Sus scrofa, UniProt P00791); assay: Simulated gastric fluid (SGF) stability assay; type: in vitro ADME; settings: 20 μM peptide, RP-HPLC
T3 construct: purchased Sigma Aldrich
Method: as §1

T3 sequence (P00791 60-385): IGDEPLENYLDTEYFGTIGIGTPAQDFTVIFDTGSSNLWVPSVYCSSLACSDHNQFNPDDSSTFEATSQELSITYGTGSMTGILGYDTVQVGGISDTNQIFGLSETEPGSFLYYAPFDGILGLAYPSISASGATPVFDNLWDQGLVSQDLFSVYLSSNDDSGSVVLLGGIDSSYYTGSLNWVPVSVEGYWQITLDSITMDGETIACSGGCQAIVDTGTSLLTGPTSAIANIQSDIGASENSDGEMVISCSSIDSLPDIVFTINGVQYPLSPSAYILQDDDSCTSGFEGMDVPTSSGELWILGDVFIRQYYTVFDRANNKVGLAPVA

“cyclo(ACSCGNSKGIYWFYRPSCPTDRGYTGSCRYFLGTCCTPADSAGASGSAGT) (disulfide 2-35, 4-28, 18-36) [cAPETx2_8RL]” showed a half-life at 20 μM (trypsin; trypsin in Tris/EDTA buffer) of 131 h and a half-life at 20 μM (pepsin [1]) of 1.67 h.
In the case of “GTACSCGNSKGIYWFYRPSCPTDRGYTGSCRYFLGTCCTPAD (disulfide 4-37, 6-30, 20-38) [APETx2_wt, APETx2]”, the “solution stability under lab storage conditions” value [2] is reported as “stable for months”, the IC50 (rat ASIC3; Xenopus oocytes, clamped at −60 mV, pH 6 stimulus, ND96 with 0.1% BSA, RT, read-out: IC50 for inhibition of rASIC3 currents) is reported as 0.061 µM and the “Trypsin stability assay: half-life” value (trypsin) is reported as 2.8 h. The “Trypsin stability assay: half-life” value (trypsin; listed as wild-type APETx2) was ~ 2.8 h, the remaining at 48 h, 20 μM (trypsin; trypsin in Tris/EDTA buffer, 48 h, 1 μg trypsin, 20 mM Tris, triplicate, read-out: peptide remaining intact after 48 h in the presence of trypsin) was about 4% and the half-life at 20 μM (pepsin [1]) was about 0.0833 h. For the same compound, the “time within which peptide is almost totally digested in simulated gastric fluid” value (pepsin [3]; SGF 6.2 mg/mL pepsin, pH 1.9, 37 °C) was at most 20 min and the “Simulated gastric fluid stability assay: half-life” value (pepsin [3]; SGF: 6.2 mg/mL pepsin, 30 mM NaCl, pH 1.9, 37 °C, samples 0-480 min, each time point in triplicate) was 5 min.
Compound `CC[C@H](C)[C@@H]1NC(=O)CNC(=O)[C@H](CCCCN)NC(=O)[C@H](CO)NC(=O)[C@H](CC(N)=O)NC(=O)CNC(=O)[C@@H]2CSSC[C@@H]3NC(=O)[C@H](CO)NC(=O)CNC(=O)[C@H]([C@@H](C)O)NC(=O)[C@H](Cc4ccc(O)cc4)NC(=O)CNC(=O)[C@H](CCCNC(=N)N)NC(=O)[C@H](CC(=O)O)NC(=O)[C@H]([C@@H](C)O)NC(=O)[C@@H]4CCCN4C(=O)[C@H](CSSC[C@@H](C(=O)N[C@H](C(=O)N4CCC[C@H]4C(=O)N[C@@H](C)C(=O)N[C@@H](CC(=O)O)C(=O)O)[C@@H](C)O)NC(=O)[C@H](CSSC[C@H](NC(=O)[C@H](C)N)C(=O)N[C@@H](CO)C(=O)N2)NC(=O)[C@H]([C@@H](C)O)NC(=O)CNC(=O)[C@H](CC(C)C)NC(=O)[C@H](Cc2ccccc2)NC(=O)[C@H](Cc2ccc(O)cc2)NC(=O)[C@H](CCCNC(=N)N)NC3=O)NC(=O)[C@H](CO)NC(=O)[C@@H]2CCCN2C(=O)[C@H](CCCNC(=N)N)NC(=O)[C@H](Cc2ccc(O)cc2)NC(=O)[C@H](Cc2ccccc2)NC(=O)[C@H](Cc2c[nH]c3ccccc23)NC(=O)[C@H](Cc2ccc(O)cc2)NC1=O` [APETx2_3–42] (H-ACSCGNSKGIYWFYRPSCPTDRGYTGSCRYFLGTCCTPAD-OH; disulfide 2-35, 4-28, 18-36) has an inhibition at 3 µM (rat ASIC3; 3 μM peptide, rat ASIC3 in Xenopus oocytes, read-out: inhibition of ASIC3 currents at 3 μM) of about 13%.
“cyclo(ACSCGNSKGIYWFYRPSCPTDRGYTGSCRYFLGTCCTPADGASGSAGT) (disulfide 2-35, 4-28, 18-36) [cAPETx2_6RL]” showed a half-life at 20 μM (trypsin; trypsin in Tris/EDTA buffer) of 104 h and a half-life at 20 μM (pepsin [1]) of 1.9 h.
In the case of “cyclo(ACSCGNSKGIYWFYRPSCPTDRGYTGSCRYFLGTCCTPADAGASGSAGT) (disulfide 2-35, 4-28, 18-36) [cAPETx2_7RL]”, the half-life at 20 μM (trypsin; trypsin in Tris/EDTA buffer) is reported as 134 h and the half-life at 20 μM (pepsin [1]) is reported as 2.75 h.
